What was measured:
ECa-109 cell line [1] = test: Antiproliferative activity against human EC109 cells assessed as inhibition of cell growth incubated for 72 hrs by SRB assay; format: functional, cell-based; conditions: ECa-109, 72 h
MGC-803 = test: Antiproliferative activity against human MGC-803 cells assessed as inhibition of cell growth incubated for 72 hrs by SRB assay; format: functional, cell-based; conditions: MGC-803, 72 h
TE-1 = test: Antiproliferative activity against human TE-1 cells assessed as inhibition of cell growth incubated for 72 hrs by SRB assay; format: functional, cell-based; conditions: TE-1, 72 h
MCF7 = test: Antiproliferative activity against human MCF7 cells assessed as inhibition of cell growth incubated for 72 hrs by SRB assay; format: functional, cell-based; conditions: MCF7, 72 h
ECa-109 cell line [2] = test: Induction of mitochondrial depolarization in human EC-109 cells assessed as depolarized cell population at 5 mM measured after 24 hrs by JC1 dye based flow cytometry (reference value: 4.2 %); format: functional
ECa-109 cell line [3] = test: Induction of apoptosis in human EC-109 cells assessed as apoptotic rate at 5 mM after 24 hrs by Annexin V-FITC/propidium iodide staining based flow cytometry (reference value: 5.7 %); format: functional
ECa-109 cell line [4] = test: Induction of apoptosis in human EC-109 cells assessed as apoptotic rate at 5 mM after 48 hrs by Annexin V-FITC/propidium iodide staining based flow cytometry (reference value: 3.8 %); format: functional
ECa-109 cell line [5] = test: Induction of apoptosis in human EC109 cells assessed as increase in intracellular ROS level at 5 mM incubated for 24 hrs by DCFH-DA staining based flow cytometry analysis (reference value: 0.6 %); format: functional

IC50 (MGC-803) [µM] | IC50 (MCF7) [µM] | SMILES | IC50 (ECa-109 cell line [1]) [µM] | IC50 (TE-1) [µM] | Activity (ECa-109 cell line [2]) [%] | Activity (ECa-109 cell line [3]) [%] | Activity (ECa-109 cell line [4]) [%] | Activity (ECa-109 cell line [5]) [%]
0.31 | 0.29 | C=C1C(=O)[C@@]23[C@H](O)C[C@@H]4C(C)(C)CCC[C@@]4(COC(C)=O)[C@@H]2[C@@H](O)C[C@H]1[C@H]3OC(=O)c1cccc(C)c1 | 0.37 | 0.32 | – | – | – | –
0.47 | 0.2 | C=C1C(=O)[C@@]23[C@H](O)C[C@@H]4C(C)(C)CCC[C@@]4(COC(C)=O)[C@@H]2[C@@H](O)C[C@H]1[C@H]3OC(=O)c1ccccc1 | 0.31 | 0.33 | – | – | – | –
1.15 | 1.17 | C=C1C(=O)[C@@]23[C@H](O)C[C@@H]4C(C)(C)CCC[C@@]4(COC(C)=O)[C@@H]2[C@@H](O)C[C@H]1[C@H]3OC(=O)c1ccc(Cl)cc1Cl | 4.25 | 1.24 | – | – | – | –
0.46 | 0.25 | C=C1C(=O)[C@@]23[C@H](O)C[C@@H]4C(C)(C)CCC[C@@]4(COC(C)=O)[C@@H]2[C@@H](O)C[C@H]1[C@H]3OC(=O)c1cccc(OC)c1 | 0.44 | 0.42 | – | – | – | –
2.35 | 2.23 | C=C1C(=O)[C@@]23[C@H](O)C[C@@H]4C(C)(C)CCC[C@@]4(COC(C)=O)[C@@H]2[C@@H](O)C[C@H]1[C@H]3OC(=O)c1cccc(F)c1 | 1.63 | 1.3 | – | – | – | –
0.66 | 0.48 | C=C1C(=O)[C@@]23[C@H](O)C[C@@H]4C(C)(C)CCC[C@@]4(COC(C)=O)[C@@H]2[C@@H](O)C[C@H]1[C@H]3OC(=O)c1cc(Cl)ccc1OC | 0.56 | 0.46 | – | – | – | –
0.63 | 0.39 | C=C1C(=O)[C@@]23[C@H](O)C[C@@H]4C(C)(C)CCC[C@@]4(COC(C)=O)[C@@H]2[C@@H](O)C[C@H]1[C@H]3OC(=O)c1ccccc1C | 0.47 | 0.45 | – | – | – | –
0.69 | 0.31 | C=C1C(=O)[C@@]23[C@H](O)C[C@@H]4C(C)(C)CCC[C@@]4(COC(C)=O)[C@@H]2[C@@H](O)C[C@H]1[C@H]3OC(=O)c1cccc(Cl)c1Cl | 0.33 | 0.39 | – | – | – | –
0.71 | 0.41 | C=C1C(=O)[C@@]23[C@H](O)C[C@@H]4C(C)(C)CCC[C@@]4(COC(C)=O)[C@@H]2[C@@H](O)C[C@H]1[C@H]3OC(=O)c1ccccc1Cl | 0.41 | 0.45 | – | – | – | –
0.79 | 0.4 | C=C1C(=O)[C@@]23[C@H](O)C[C@@H]4C(C)(C)CCC[C@@]4(COC(C)=O)[C@@H]2[C@@H](O)C[C@H]1[C@H]3OC(=O)c1ccccc1C(F)(F)F | 0.42 | 0.32 | – | – | – | –
0.41 | 0.36 | C=C1C(=O)[C@@]23[C@H](O)C[C@@H]4C(C)(C)CCC[C@@]4(COC(C)=O)[C@@H]2[C@@H](O)C[C@H]1[C@H]3OC(=O)c1cccc(Cl)c1 | 0.4 | 0.41 | – | – | – | –
0.42 | 0.38 | C=C1C(=O)[C@@]23[C@H](O)C[C@@H]4C(C)(C)CCC[C@@]4(COC(C)=O)[C@@H]2[C@@H](O)C[C@H]1[C@H]3OC(=O)c1cccc(Br)c1 | 0.24 | 0.16 | – | – | – | –
2.29 | 1.72 | C=C1C(=O)[C@@]23[C@H](O)C[C@@H]4C(C)(C)CCC[C@@]4(COC(C)=O)[C@@H]2[C@@H](O)C[C@H]1[C@H]3OC(=O)c1ccccc1F | 1.63 | 3.63 | – | – | – | –
0.52 | 0.46 | C=C1C(=O)[C@@]23[C@H](O)C[C@@H]4C(C)(C)CCC[C@@]4(COC(C)=O)[C@@H]2[C@@H](O)C[C@H]1[C@H]3OC(=O)c1ccccc1Br | 0.51 | 0.37 | – | – | – | –
0.28 | 0.27 | C=C1C(=O)[C@@]23[C@H](O)C[C@@H]4C(C)(C)CCC[C@@]4(COC(C)=O)[C@@H]2[C@@H](O)C[C@H]1[C@H]3OC(=O)c1ccc(Cl)cc1 | 0.33 | 0.38 | – | – | – | –

Second part, the molecule before the results:

SMILES | IC50 (MGC-803) [µM] | IC50 (MCF7) [µM] | IC50 (ECa-109 cell line [1]) [µM] | IC50 (TE-1) [µM] | Activity (ECa-109 cell line [2]) [%] | Activity (ECa-109 cell line [3]) [%] | Activity (ECa-109 cell line [4]) [%] | Activity (ECa-109 cell line [5]) [%]
C=C1C(=O)[C@@]23[C@H](O)C[C@@H]4C(C)(C)CCC[C@@]4(COC(C)=O)[C@@H]2[C@@H](O)C[C@H]1[C@H]3OC(=O)c1ccc(C(F)(F)F)cc1 | 0.77 | 0.35 | 0.38 | 0.42 | – | – | – | –
CC(=O)N[C@@H](CS)C(=O)O [ACETYLCYSTEINE] | – | – | – | – | 4.8 | 6.4 | 4.5 | 0.2
C=C1C(=O)[C@@]23[C@H](O)C[C@@H]4C(C)(C)CCC[C@@]4(COC(C)=O)[C@@H]2[C@@H](O)C[C@H]1[C@H]3OC(=O)c1ccc(C)cc1 | 0.48 | 0.24 | 0.3 | 0.3 | – | – | – | –
C=C1C(=O)[C@@]23[C@H](O)C[C@@H]4C(C)(C)CCC[C@@]4(COC(C)=O)[C@@H]2[C@@H](O)C[C@H]1[C@H]3O | 8.7 | 6.79 | 5.24 | 6.82 | – | – | – | –
C=C1C(=O)[C@@]23[C@H](O)C[C@@H]4C(C)(C)CCC[C@@]4(COC(C)=O)[C@@H]2[C@@H](O)C[C@H]1[C@H]3OC(=O)CCc1ccccc1 | 1.28 | 0.6 | 0.68 | 0.72 | – | – | – | –
C=C1C(=O)[C@@]23[C@H](O)C[C@@H]4C(C)(C)CCC[C@@]4(COC(C)=O)[C@@H]2[C@@H](O)C[C@H]1[C@H]3OC(=O)c1ccc(Br)cc1 | 0.61 | 0.33 | 0.38 | 0.39 | – | – | – | –
C=C1C(=O)[C@@]23[C@H](O)C[C@@H]4C(C)(C)CCC[C@@]4(COC(C)=O)[C@@H]2[C@@H](O)C[C@H]1[C@H]3OC(=O)c1ccc(F)cc1 | 0.92 | 1.34 | 8.48 | 20.1 | – | – | – | –
C=C1C(=O)[C@@]23[C@H](O)C[C@@H]4C(C)(C)CCC[C@@]4(COC(C)=O)[C@@H]2[C@@H](O)C[C@H]1[C@H]3OC(=O)c1ccc(OC)c(OC)c1 | 0.57 | 0.14 | 0.27 | 0.34 | – | – | – | –
C=C1C(=O)[C@@]23[C@H](O)C[C@@H]4C(C)(C)CCC[C@@]4(COC(C)=O)[C@@H]2[C@@H](O)C[C@H]1[C@H]3OC(=O)c1ccc(OC)cc1 | 0.46 | 0.23 | 0.29 | 0.25 | – | – | – | –
C=C1C(=O)[C@@]23[C@H](O)C[C@@H]4C(C)(C)CCC[C@@]4(COC(C)=O)[C@@H]2[C@@H](O)C[C@H]1[C@H]3OC(=O)CCCBr | 0.25 | 0.47 | 0.76 | 0.47 | – | – | – | –
C=C1C(=O)[C@]23[C@H](O)[C@H]1CC[C@H]2[C@@]12CO[C@]3(O)[C@@H](O)[C@@H]1C(C)(C)CC[C@@H]2O [ORIDONIN] | – | – | 22 | – | – | – | – | –
C=C1C(=O)[C@@]23[C@H](O)C[C@@H]4C(C)(C)CCC[C@@]4(COC(C)=O)[C@@H]2[C@@H](O)C[C@H]1[C@H]3OC(=O)c1cccc(C(F)(F)F)c1 | 1.15 | 0.29 | 0.33 | 0.37 | – | – | – | –
C=C1C(=O)[C@@]23[C@H](O)C[C@@H]4C(C)(C)CCC[C@@]4(COC(C)=O)[C@@H]2[C@@H](O)C[C@H]1[C@H]3OC(=O)c1ccc(CBr)cc1 | 0.34 | 0.14 | 0.17 | 0.25 | – | – | – | –

From ChEMBL document CHEMBL4706557, “Synthesis and in vitro and in vivo biological evaluation of novel derivatives of flexicaulin A as antiproliferative agents” (Eur J Med Chem, 2020)
